Inconclusive results and toxic doses are left out. No stated cut-off is given here; in the data, active means T/C of 150% or more; inactive means T/C below 125%.
Test system: L1210 leukemia ip in BDF1 mice, survival T/C
Experiment: NCI In Vivo Anticancer Drug Screen. Data for tumor model L1210 Leukemia (intraperitoneal) in B6D2F1 (BDF1) mice
Conditions: endpoint: mean survival time, higher = longer survival
How it was run: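 Each compound was tested against a transplantable tumor grown in mice. The endpoint was survival, with treated animals benchmarked against vehicle controls as a simple ratio.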

[1] = dose: 100.0 mg/kg/injection, schedule: Q01DX001 (ip), vehicle: carboxymethylcellulose (CMC)
[2] = dose: 200.0 mg/kg/injection, schedule: Q01DX001 (ip), vehicle: carboxymethylcellulose (CMC)
[3] = dose: 400.0 mg/kg/injection, schedule: Q01DX001 (ip), vehicle: carboxymethylcellulose (CMC)
[4] = dose: 50.0 mg/kg/injection, schedule: Q04DX002 (ip), vehicle: saline with Tween-80
[5] = dose: 100.0 mg/kg/injection, schedule: Q04DX002 (ip), vehicle: saline with Tween-80
[6] = dose: 200.0 mg/kg/injection, schedule: Q04DX002 (ip), vehicle: saline with Tween-80
[7] = dose: 400.0 mg/kg/injection, schedule: Q04DX002 (ip), vehicle: saline with Tween-80
[8] = dose: 100.0 mg/kg/injection, schedule: Q01DX001 (ip), vehicle: saline
[9] = dose: 200.0 mg/kg/injection, schedule: Q01DX001 (ip), vehicle: saline
[10] = dose: 100.0 mg/kg/injection, schedule: Q01DX009 (ip), vehicle: saline with Tween-80
[11] = dose: 200.0 mg/kg/injection, schedule: Q01DX009 (ip), vehicle: saline with Tween-80
[12] = dose: 100.0 mg/kg/injection, schedule: Q04DX003 (ip), vehicle: saline with Tween-80
[13] = dose: 200.0 mg/kg/injection, schedule: Q04DX003 (ip), vehicle: saline with Tween-80
[14] = dose: 400.0 mg/kg/injection, schedule: Q01DX001 (ip), vehicle: saline

Measured: T/C

CC(C)c1ccc(/C=C/C(=O)O)cc1
inactive: dose: 50.0 mg/kg/injection, schedule: Q01DX001 (ip), vehicle: carboxymethylcellulose (CMC) 108 % of control | [1] 97 % of control | [2] 92 % of control | [3] 101 % of control

O=C1CSc2ccccc2N1CCN1C(=O)CSc2ccccc21
inactive: [4] 93 % of control | [5] 90 % of control | [6] 101 % of control | [7] 86 % of control

O=[N+]([O-])c1ccc(N/N=C/C(O)C(O)C(O)CO)cc1 (centres undefined)
inactive: [4] 106 % of control | [5] 106 % of control | [6] 87 % of control

CCc1ccncc1
inactive: [8] 101 % of control | [9] 88 % of control

[N-]=C=C(C(=O)c1ccccc1)[n+]1cc(Br)cc2ccccc21
inactive: [5] 94 % of control | [6] 94 % of control | [7] 94 % of control

Cc1ncc2c(=O)n(-c3ccc(Br)cc3)[nH]c2n1
inactive: dose: 100.0 mg/kg/injection, schedule: Q04DX003 (ip), vehicle: gum acacia 96 % of control | dose: 200.0 mg/kg/injection, schedule: Q04DX003 (ip), vehicle: gum acacia 97 % of control | dose: 400.0 mg/kg/injection, schedule: Q04DX003 (ip), vehicle: gum acacia 92 % of control

CC12COC(=O)CC1CCC1C2CCC2(C)C1CCC2(C)O (centres undefined)
inactive: dose: 50.0 mg/kg/injection, schedule: Q01DX009 (ip), vehicle: saline with Tween-80 96 % of control | [8] 93 % of control | [10] 91 % of control | [9] 90 % of control | [11] 101 % of control

CC(=O)c1cc(Cl)ccc1Cl
inactive: dose: 100.0 mg/kg/injection, schedule: Q04DX002 (ip), vehicle: saline 97 % of control | dose: 200.0 mg/kg/injection, schedule: Q04DX002 (ip), vehicle: saline 103 % of control | dose: 400.0 mg/kg/injection, schedule: Q04DX002 (ip), vehicle: saline 103 % of control

CC(=O)OC1=COc2c(Cl)ccc3cccc1c23
inactive: dose: 100.0 mg/kg/injection, schedule: Q01DX001 (ip), vehicle: Klucel (hydroxypropylcellulose) (HPC) 103 % of control | dose: 200.0 mg/kg/injection, schedule: Q01DX001 (ip), vehicle: Klucel (hydroxypropylcellulose) (HPC) 109 % of control | dose: 400.0 mg/kg/injection, schedule: Q01DX001 (ip), vehicle: Klucel (hydroxypropylcellulose) (HPC) 97 % of control

C=C(CCCCCCCCCCCCCCCC)C(=O)O
inactive: [5] 91 % of control | [7] 88 % of control

Nc1ncnc2c1ncn2C1OC(CO)C2OP(=O)(O)OC21 (centres undefined)
inactive: dose: 100.0 mg/kg/injection, schedule: Q01DX005 (ip), vehicle: saline 95 % of control | dose: 200.0 mg/kg/injection, schedule: Q01DX005 (ip), vehicle: saline 118 % of control

O=C1c2ccccc2C(=O)N1CC1CO1 (centres undefined)
inactive: dose: 25.0 mg/kg/injection, schedule: Q04DX002 (ip), vehicle: Klucel (hydroxypropylcellulose) (HPC) 90 % of control | dose: 50.0 mg/kg/injection, schedule: Q04DX002 (ip), vehicle: Klucel (hydroxypropylcellulose) (HPC) 93 % of control | dose: 100.0 mg/kg/injection, schedule: Q04DX002 (ip), vehicle: Klucel (hydroxypropylcellulose) (HPC) 93 % of control

Clc1cc2n[nH]nc2c(SCc2ccccc2)n1
inactive: dose: 50.0 mg/kg/injection, schedule: Q01DX005 (ip), vehicle: saline with Tween-80 101 % of control | dose: 100.0 mg/kg/injection, schedule: Q01DX005 (ip), vehicle: saline with Tween-80 90 % of control | dose: 200.0 mg/kg/injection, schedule: Q01DX005 (ip), vehicle: saline with Tween-80 97 % of control

CC12CCCCC1CCC1C2CCC2(C)C(C(=O)O)CCC12 (centres undefined)
inactive: dose: 100.0 mg/kg/injection, schedule: Q04DX002 (ip), vehicle: gum acacia 89 % of control | dose: 200.0 mg/kg/injection, schedule: Q04DX002 (ip), vehicle: gum acacia 99 % of control | dose: 400.0 mg/kg/injection, schedule: Q04DX002 (ip), vehicle: gum acacia 92 % of control

O=C(Nc1ccccc1F)Oc1ccc(C2CCCCC2)cc1
inactive: [10] 104 % of control | [11] 104 % of control | dose: 400.0 mg/kg/injection, schedule: Q01DX009 (ip), vehicle: saline with Tween-80 101 % of control

Nc1cccc(OCCCCc2ccccc2)c1
inactive: [12] 101 % of control | [13] 95 % of control

Cc1cccn2c(=O)cc(O)nc12
inactive: dose: 50.0 mg/kg/injection, schedule: Q01DX001 (ip), vehicle: saline 112 % of control | [8] 110 % of control | [9] 116 % of control | [14] 103 % of control

O=C(c1ccccc1)N1CC1
inactive: dose: 25.0 mg/kg/injection, schedule: Q01DX009 (ip), vehicle: water 95 % of control | dose: 50.0 mg/kg/injection, schedule: Q01DX009 (ip), vehicle: water 93 % of control | dose: 100.0 mg/kg/injection, schedule: Q01DX009 (ip), vehicle: water 86 % of control | dose: 200.0 mg/kg/injection, schedule: Q01DX009 (ip), vehicle: water 88 % of control | dose: 400.0 mg/kg/injection, schedule: Q01DX009 (ip), vehicle: water 90 % of control

Cc1cc(C)c2nc(Cl)cc(C)c2c1
inactive: [8] 91 % of control | [9] 91 % of control | [14] 104 % of control

O=C(Nc1ccc(C2=NCCN2)cc1)c1ccc(N=Nc2ccc(C(=O)Nc3ccc(C4=NCCN4)cc3)cc2)cc1
inactive: dose: 125.0 mg/kg/injection, schedule: Q01DX Z (ip), vehicle: water 106 % of control | dose: 250.0 mg/kg/injection, schedule: Q01DX Z (ip), vehicle: water 107 % of control

O=C(O)/C(=C\c1ccc(Cl)cc1)c1ccc(C(F)(F)F)cc1[N+](=O)[O-]
inactive: [12] 96 % of control | [13] 94 % of control | dose: 400.0 mg/kg/injection, schedule: Q04DX003 (ip), vehicle: saline with Tween-80 92 % of control

c1cc(N=NNc2cccc(C3=NCCN3)c2)cc(C2=NCCN2)c1
inactive: dose: 7.75 mg/kg/injection, schedule: Q01DX015 (ip), vehicle: water 100 % of control | dose: 15.5 mg/kg/injection, schedule: Q01DX015 (ip), vehicle: water 94 % of control | dose: 31.0 mg/kg/injection, schedule: Q01DX015 (ip), vehicle: water 100 % of control | dose: 62.0 mg/kg/injection, schedule: Q01DX015 (ip), vehicle: water 98 % of control

C1=CCC2CSCC2C1 (centres undefined)
inactive: dose: 75.0 mg/kg/injection, schedule: Q01DX009 (ip), vehicle: saline sonified 98 % of control | dose: 150.0 mg/kg/injection, schedule: Q01DX009 (ip), vehicle: saline sonified 98 % of control

O=C(O)/C=C/C(=O)Nc1ccc2c(c1)C(NC(=O)/C=C/C(=O)O)c1ccccc1-2 (centres undefined)
inactive: [8] 93 % of control | dose: 100.0 mg/kg/injection, schedule: Q04DX003 (ip), vehicle: saline 100 % of control | [9] 97 % of control | dose: 200.0 mg/kg/injection, schedule: Q04DX003 (ip), vehicle: saline 96 % of control | [14] 88 % of control | dose: 400.0 mg/kg/injection, schedule: Q04DX003 (ip), vehicle: saline 92 % of control

[CH3][Ga]([CH3])[O]c1ccccc1C=O
inactive: dose: 1.5 mg/kg/injection, schedule: Q01DX009 (ip), vehicle: DMSO 97 % of control | dose: 1.5 mg/kg/injection, schedule: Q04DX003 (ip), vehicle: DMSO 107 % of control | dose: 3.0 mg/kg/injection, schedule: Q01DX009 (ip), vehicle: DMSO 97 % of control | dose: 3.0 mg/kg/injection, schedule: Q04DX003 (ip), vehicle: DMSO 94 % of control | dose: 6.0 mg/kg/injection, schedule: Q01DX009 (ip), vehicle: DMSO 108 % of control | dose: 6.0 mg/kg/injection, schedule: Q04DX003 (ip), vehicle: DMSO 102 % of control

C#CCOC(=O)Nc1ccc(C)cc1
inactive: [1] 108 % of control | [2] 100 % of control | [3] 118 % of control

COc1ccc(C=Nc2cc(Cl)ccc2O)cc1
inactive: [1] 89 % of control | [2] 95 % of control | [3] 95 % of control
